Where two headings read alike, the source gives them in different places.
How the values were obtained:
Test in all cases: MTT cell proliferation assay
Type in all cases: cell-based
3T3 cells = conditions: Mus musculus, NIH3T3, approximately 64-72 hours incubation
Method: (§1) The MTT cell proliferation assay was used to study the cytotoxic properties of the compounds. The assay was performed according to the method described by Roche Molecular Biochemicals, with minor modifications. The assay is based on the cleavage of the tetrazolium salt, MTT, in the presence of an electron-coupling reagent. The water-insoluble formazan salt produced must be solubilized in an additional step. Cells grown in a 96-well tissue culture plate were incubated with the MTT solution for approximately 4 hours. After this incubation period, a water-insoluble formazan dye formed. After solubilization, the formazan dye was quantitated using a scanning multi-well spectrophotometer (ELISA reader). […] The cells were seeded at 5,000-10,000 cells in each well of 96-well plate in 100 μL of fresh culture medium and were allowed to attach overnight. The stock solutions of the compounds were diluted in 100 μL cell culture medium to obtain eight concentrations of each test compound, ranging from 1 nM to 30 μM. […] All optical densities were measured at 490 nm using a Vmax Kinetic Microplate Reader (Molecular Devices). In most cases, the assay was performed in duplicate and the results were presented as a mean percent inhibition to the negative control±SE. The following formula was used to calculate the percent of inhibition: Inhibition (%)=(1−(ODo/OD))×100.
(§2) The compounds were tested against MS751, Z138 and 3T3 cells. The MS751 cell line is derived from a metastasis to lymph node of human cervix from a patient diagnosed with squamous cell carcinoma of the cervix. The Z138 cell line is a mature B-cell acute lymphoblastic leukemia cell line derived from a patient with chronic lymphocytic leukemia. 3T3 cells are standard fibroblast cells; they were originally isolated from Swiss mouse embryo tissue.

MS751 cells = conditions: Homo sapiens, MS751, MS751 cells, approximately 64-72 hours incubation
Method: as §1, §2

Z138 cells = conditions: Homo sapiens, Z-138, Z138 cells, approximately 64-72 hours incubation
Method: as §1, §2

[1] = read-out: MTT Assay IC50, MS-751
[2] = read-out: MTT Assay IC50, Z-138
[3] = read-out: MTT Assay IC50 MS-751

SMILES	IC50 (3T3 cells; read-out: MTT Assay IC50, 3T3) [µM]	IC50 (MS751 cells; [1]) [µM]	IC50 (Z138 cells; [2]) [µM]	IC50 (3T3 cells; read-out: MTT Assay IC50 3T3) [µM]	IC50 (MS751 cells; [3]) [µM]	IC50 (Z138 cells; read-out: MTT Assay IC50 Z-138) [µM]
O=C(/C=C/c1cccnc1)NCc1cc2cc(-c3ccc(C(=O)N4CC5(COC5)C4)cn3)cc(C(F)(F)F)c2o1 [Compound 689, (E)-N-((5-(5-(2-oxa-6-azaspiro[3.3]heptane-6-carbonyl)pyridin-2-yl)-7-(trifluoromethyl)benzofuran-2-yl)methyl)-3-(pyridin-3-yl)acrylamide]	0.1 to 5	< 0.1	< 0.1			
Nc1ccc(/C=C/C(=O)NCc2cc3cc(-c4ccc(C(=O)N5CCC[C@H]5C(F)(F)F)cn4)cc(C(F)(F)F)c3o2)cn1 [Compound 622, (S,E)-3-(6-aminopyridin-3-yl)-N-((7-(trifluoromethyl)-5-(5-(2-(trifluoromethyl)pyrrolidine-1-carbonyl)pyridin-2-yl)benzofuran-2-yl)methyl)acrylamide]				> 10	> 10	5 to 10
CO[C@@H]1CN(C(=O)c2ccc(-c3cc(C(F)(F)F)c4oc(CNC(=O)/C=C/c5ccc(N)nc5)cc4c3)nc2)C[C@H]1F [Compound 628, (E)-3-(6-aminopyridin-3-yl)-N-((5-(5-(3-fluoro-4-methoxypyrrolidine-1-carbonyl)pyridin-2-yl)-7-(trifluoromethyl)benzofuran-2-yl)methyl)acrylamide]				> 10	0.1 to 5	0.1 to 5
Nc1ccc(/C=C/C(=O)NCc2cc3cc(-c4ncc(C(=O)N5CCNCC5)cn4)cc(Cl)c3o2)cn1 [Compound 649, (E)-3-(6-aminopyridin-3-yl)-N-((7-chloro-5-(5-(piperazine-1-carbonyl)pyrimidin-2-yl)benzofuran-2-yl)methyl)acrylamide]				> 10	0.1 to 5	0.1 to 5
COc1cc(-c2ccc(C(=O)N3CCC(F)(F)CC3)cn2)cc2cc(CNC(=O)/C=C/c3ccc(N)nc3)oc12 [Compound 651, (E)-3-(6-aminopyridin-3-yl)-N-((5-(5-(4,4-difluoropiperidine-1-carbonyl)pyridin-2-yl)-7-methoxybenzofuran-2-yl)methyl)acrylamide]				> 10	< 0.1	< 0.1
COc1ccc(-c2ccc(S(=O)(=O)N3CCOCC3)cc2)c2cc(CNC(=O)/C=C/c3ccc(N)nc3)oc12 [Compound 554, (E)-3-(6-aminopyridin-3-yl)-N-((7-methoxy-4-(4-(morpholinosulfonyl)phenyl)benzofuran-2-yl)methyl)acrylamide]				> 10	0.1 to 5	< 0.1
CC1(O)CCN(C(=O)c2ccc(-c3cc(C(F)(F)F)c4oc(CNC(=O)/C=C/c5ccc(N)nc5)cc4c3)cc2)CC1 [Compound 571, (E)-3-(6-aminopyridin-3-yl)-N-((5-(4-(4-hydroxy-4-methylpiperidine-1-carbonyl)phenyl)-7-(trifluoromethyl)benzofuran-2-yl)methyl)acrylamide]				> 10	0.1 to 5	< 0.1
Nc1ccc(/C=C/C(=O)NCc2cc3cc(-c4ccc(C(=O)N5CCC(F)(F)CC5)cc4F)cc(C(F)(F)F)c3o2)cn1 [Compound 683, (E)-3-(6-aminopyridin-3-yl)-N-((5-(4-(4,4-difluoropiperidine-1-carbonyl)-2-fluorophenyl)-7-(trifluoromethyl)benzofuran-2-yl)methyl)acrylamide]	> 10	0.1 to 5	0.1 to 5			
Nc1ccc(/C=C/C(=O)NCc2cc3cc(-c4ccc(C(=O)c5ccc(F)cc5)cn4)cc(-c4ccc(F)cc4)c3o2)cn1 [Compound 703, (E)-3-(6-aminopyridin-3-yl)-N-((5-(5-(4-fluorobenzoyl)pyridin-2-yl)-7-(4-fluorophenyl)benzofuran-2-yl)methyl)acrylamide]	5 to 10	0.1 to 5	< 0.1			
Nc1ccc(/C=C/C(=O)NCc2cc3cc(-c4ccc(C(=O)N5CCNCC5)cc4)cc(C(F)(F)F)c3o2)cn1 [Compound 564, (E)-3-(6-aminopyridin-3-yl)-N-((5-(4-(piperazine-1-carbonyl)phenyl)-7-(trifluoromethyl)benzofuran-2-yl)methyl)acrylamide]				> 10	< 0.1	< 0.1
CC1(F)CN(C(=O)c2ccc(-c3cc(C(F)(F)F)c4oc(CNC(=O)/C=C/c5ccc(N)nc5)cc4c3)cc2)C1 [Compound 587, (E)-3-(6-aminopyridin-3-yl)-N-((5-(4-(3-fluoro-3-methylazetidine-1-carbonyl)phenyl)-7-(trifluoromethyl)benzofuran-2-yl)methyl)acrylamide]				> 10	0.1 to 5	0.1 to 5
COc1cc(-c2ccc(C(=O)N3CCOCC3)cc2)cc2cc(CNC(=O)/C=C/c3ccc(N)nc3)oc12 [Compound 592, (E)-3-(6-aminopyridin-3-yl)-N-((7-methoxy-5-(4-(morpholine-4-carbonyl)phenyl)benzofuran-2-yl)methyl)acrylamide]				> 10	0.1 to 5	< 0.1
CC1(F)CCN(C(=O)c2ccc(-c3cc(C(F)(F)F)c4oc(CNC(=O)/C=C/c5ccc(N)nc5)cc4c3)cc2)CC1 [Compound 604, (E)-3-(6-aminopyridin-3-yl)-N-((5-(4-(4-fluoro-4-methylpiperidine-1-carbonyl)phenyl)-7-(trifluoromethyl)benzofuran-2-yl)methyl)acrylamide]				> 10	0.1 to 5	0.1 to 5
Nc1ccc(/C=C/C(=O)NCc2cc3cc(-c4ccc(C(=O)N5CCC(F)(F)CC5)cn4)c(C(F)(F)F)cc3o2)cn1 [Compound 664, (E)-3-(6-aminopyridin-3-yl)-N-((5-(5-(4,4-difluoropiperidine-1-carbonyl)pyridin-2-yl)-6-(trifluoromethyl)benzofuran-2-yl)methyl)acrylamide]	> 10	> 10	> 10			
CN1CCN(C(=O)c2cnc(-c3cc(Cl)c4oc(CNC(=O)/C=C/c5ccc(N)nc5)cc4c3)nc2)CC1 [Compound 586]				> 10	0.1 to 5	0.1 to 5
Cc1c(CNC(=O)/C=C/c2ccc(N)nc2)oc2c(C(F)(F)F)cc(-c3ccc(C(=O)N4CCC(F)(F)CC4)cn3)cc12 [Compound 677, (E)-3-(6-aminopyridin-3-yl)-N-((5-(5-(4,4-difluoropiperidine-1-carbonyl)pyridin-2-yl)-3-methyl-7-(trifluoromethyl)benzofuran-2-yl)methyl)acrylamide]	> 10	> 10	> 10			
Nc1ccc(/C=C/C(=O)NCc2cc3cc(-c4ccc(C(=O)N5CCC(F)(F)CC5)cc4F)cc(-c4ccc(Cl)cc4)c3o2)cn1 [Compound 750, (E)-3-(6-aminopyridin-3-yl)-N-((7-(4-chlorophenyl)-5-(4-(4,4-difluoropiperidine-1-carbonyl)-2-fluorophenyl)benzofuran-2-yl)methyl)acrylamide]	> 10	0.1 to 5	0.1 to 5			
Nc1ccc(/C=C/C(=O)NCc2cc3cc(-c4ccc(C(=O)N5CCC(F)(F)CC5)cn4)cc(-c4ccc(F)cc4)c3o2)cn1 [Compound 665, (E)-3-(6-aminopyridin-3-yl)-N-((5-(5-(4,4-difluoropiperidine-1-carbonyl)pyridin-2-yl)-7-(4-fluorophenyl)benzofuran-2-yl)methyl)acrylamide]	0.1 to 5	< 0.1	< 0.1			
Nc1ccc(/C=C/C(=O)NCc2cc3cc(-c4ccc(C(=O)N5CCC(F)(F)CC5)cn4)cc(-c4cccnc4)c3o2)cn1 [Compound 669, (E)-3-(6-aminopyridin-3-yl)-N-((5-(5-(4,4-difluoropiperidine-1-carbonyl)pyridin-2-yl)-7-(pyridin-3-yl)benzofuran-2-yl)methyl)acrylamide]	0.1 to 5	< 0.1	< 0.1			
Nc1ccc(/C=C/C(=O)NCc2cc3cc(-c4ccc(C(=O)N5CCC(F)(F)CC5)cc4)cc(-c4c(F)cc(F)cc4F)c3o2)cn1 [Compound 697, (E)-3-(6-aminopyridin-3-yl)-N-((5-(4-(4,4-difluoropiperidine-1-carbonyl)phenyl)-7-(2,4,6-trifluorophenyl)benzofuran-2-yl)methyl)acrylamide]	0.1 to 5	< 0.1	< 0.1			
Nc1ccc(/C=C/C(=O)NCc2cc3cc(-c4ccc(C(=O)N5CCC(F)(F)CC5)cc4)cc(-c4ccc(F)cc4Cl)c3o2)cn1 [Compound 738, (E)-3-(6-aminopyridin-3-yl)-N-((7-(2-chloro-4-fluorophenyl)-5-(4-(4,4-difluoropiperidine-1-carbonyl)phenyl)benzofuran-2-yl)methyl)acrylamide]	0.1 to 5	< 0.1	< 0.1			
